From article PMC6100568, “Novel Uridine Glycoconjugates, Derivatives of 4-Aminophenyl 1-Thioglycosides, as Potential Antiviral Compounds” (Molecules : A Journal of Synthetic Chemistry and Natural …, 2018)
“Also recorded” adds a separate entry of the source. Where two headings read alike, the source gives them in different places.

What was measured:
[1] = system: HCVcc (Jc1/JFH genotype 2a); test: HCVcc pseudo-plaque reduction assay (IPMA) in Huh-7.5 cells; conditions: for SI (CC50/IC50): HCV (Huh-7.5 cells); for IC50: Hepatitis C virus, Huh7.5
[2] = system: classical swine fever virus (CSFV)
[3] = in vitro; conditions: swine
[4] = system: classical swine fever virus (CSFV); test: microbe, parasite or virus in culture
[5] = MTT cell viability assay in non-infected Huh-7.5 cells; conditions: human
[6] = system: swine kidney (SK6) cells
[7] = system: HCV replication (Huh7-J17 replicon); test: HCV replicon Huh7-J17 luciferase assay; assay type: cell-based; conditions: Hepatitis C virus; Huh7-J17 replicon cells, 72 h; read-out: IC50 (inhibition of HCV RNA replication, luciferase activity)
[8] = system: HCV viral RNA (NS5B gene); assay type: cell-based, hepatitis C virus
[9] = system: HCVcc genotype 2a JFH-1 strain; test: SEAP reporter assay in Huh7-J20 cells, three infection models (time-of-drug addition); assay type: cell-based, hepatitis C virus; conditions: SEAP level; for effect on virus entry (Model 1): 1 h pre-treatment + 3 h infection with compound, then 72 h without; for antiviral activity in post-viral entry model (Model 3): compound added after 3 h infection for 72 h; for antiviral activity in full life cycle (Model 2): compound present before, during and 72 h after infection
[10] = in vitro; conditions: human
[11] = biological target: T1, β-1,4GalT (Bos taurus, UniProt P08037); test: Bovine milk β-1,4GalT I assay (RP-HPLC, fluorescence); assay type: biochemical; conditions: for ability to inhibit β-1,4GalT activity: 0.8 mM
T1 construct: purchased; host or cells: bovine milk
T1 sequence (P08037 78-402 limits assumed): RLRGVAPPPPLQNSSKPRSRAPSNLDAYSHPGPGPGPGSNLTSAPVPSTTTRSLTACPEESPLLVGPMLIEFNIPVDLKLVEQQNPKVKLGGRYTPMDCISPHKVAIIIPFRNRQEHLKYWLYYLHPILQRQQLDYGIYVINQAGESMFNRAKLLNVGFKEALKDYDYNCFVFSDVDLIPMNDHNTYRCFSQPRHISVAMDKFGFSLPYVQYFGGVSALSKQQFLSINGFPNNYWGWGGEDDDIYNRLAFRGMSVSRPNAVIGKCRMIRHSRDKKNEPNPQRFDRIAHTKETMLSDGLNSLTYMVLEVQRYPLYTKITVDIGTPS

[12] = system: Huh-7.5 cells; conditions: cited from earlier work
[13] = system: classical swine fever virus (CSFV); conditions: cited from earlier work
[14] = system: viral genome replication; conditions: cited from earlier work
[15] = system: swine kidney (SK6) cells; conditions: cited from earlier work
[16] = system: HCVcc (Jc1/JFH genotype 2a); conditions: cited from earlier work
[17] = system: Huh7-J17 cells; conditions: human
[18] = system: Huh-7.5 cells; test: MTT cell viability assay in non-infected Huh-7.5 cells; conditions: concentration reducing cell viability by 50%, mean ± S.D.

CC(=O)OC[C@H]1O[C@@H](Sc2ccc(NC(=O)CCC(=O)OC[C@H]3O[C@@H](n4ccc(=O)[nH]c4=O)[C@@H]4OC(C)(C)O[C@@H]43)cc2)[C@H](OC(C)=O)[C@@H](OC(C)=O)[C@@H]1OC(C)=O [Compound 7]
SI (CC50/IC50) [1]: 1.4
IC50 [1]: 281 ± 4.7 µM
SI (CC50/IC50) [2]: 1.1
CC50 [3]: 103 ± 5.9 µM
IC50 [4]: 97 ± 2 µM
CC50 [5]: 399 ± 11.4 µM

CC(=O)OC[C@H]1O[C@@H](Sc2ccc(NC(=O)CCC(=O)OC[C@H]3O[C@@H](n4ccc(=O)[nH]c4=O)[C@H](O[Si](C)(C)C(C)(C)C)[C@@H]3O[Si](C)(C)C(C)(C)C)cc2)[C@H](OC(C)=O)[C@@H](OC(C)=O)[C@@H]1OC(C)=O [Compound 8]
SI (CC50/IC50) [1]: 4
IC50 [1]: 4 ± 0.2 µM
SI (CC50/IC50) [2]: 9.3
CC50 [3]: 42 ± 1.9 µM
IC50 [4]: 4.5 ± 0.3 µM
cytotoxicity in words [6]: relatively toxic
CC50 [5]: 16 ± 1.1 µM

CC(=O)OC[C@H]1O[C@@H](Sc2ccc(NC(=O)CCC(=O)OC[C@H]3O[C@@H](n4ccc(=O)[nH]c4=O)[C@H](O[Si](C)(C)C(C)(C)C)[C@@H]3O[Si](C)(C)C(C)(C)C)cc2)[C@H](OC(C)=O)[C@@H](OC(C)=O)[C@H]1OC(C)=O [Compound 9]
SI (CC50/IC50) [1]: 52.4
IC50 [1]: 4.9 ± 0.3 µM
inhibition of viral HCV replication (pseudo-plaques) ([1]; Huh-7.5 cells, 4–10 µM, Figure 2): dose-dependent inhibition
SI (CC50/IC50) [2]: 29.5
inhibition of CSFV propagation (size and number of pseudo-plaques) [2]: dose-dependent inhibition
CC50 [3]: 124 ± 6.8 µM
IC50 [7]: 4.18 µM
IC50 [4]: 4.2 ± 0.5 µM
amount of viral RNA (NS5B RT-PCR) [8]: significant dose-dependent inhibition
effect on virus entry (Model 1) [9]: none of the tested compounds targeted virus entry; also recorded: neither compound affected viral entry
antiviral activity in post-viral entry model (Model 3) [9]: strong antiviral activity
antiviral activity in full life cycle (Model 2) [9]: strong antiviral activity
CC50 [5]: 257 ± 5.7 µM
CC50 [10]: 133 µM

CC(=O)OC[C@H]1O[C@@H](Sc2ccc(NC(=O)[C@H]3O[C@@H](n4ccc(=O)[nH]c4=O)[C@@H]4OC(C)(C)O[C@@H]43)cc2)[C@H](OC(C)=O)[C@@H](OC(C)=O)[C@@H]1OC(C)=O [Compound 10]
SI (CC50/IC50) [1]: 1.7
IC50 [1]: 154 ± 2.8 µM
SI (CC50/IC50) [2]: 2.2
CC50 [3]: 326 ± 11.2 µM
IC50 [4]: 149 ± 6.1 µM
CC50 [5]: 258 ± 6.2 µM

CC(=O)OC[C@H]1O[C@@H](Sc2ccc(NC(=O)[C@H]3O[C@@H](n4ccc(=O)[nH]c4=O)[C@@H]4OC(C)(C)O[C@@H]43)cc2)[C@H](OC(C)=O)[C@@H](OC(C)=O)[C@H]1OC(C)=O [Compound 11]
SI (CC50/IC50) [1]: 1.6
IC50 [1]: 167 ± 3.1 µM
SI (CC50/IC50) [2]: 1.6
CC50 [3]: 340 ± 9.1 µM
IC50 [4]: 217 ± 3.9 µM
CC50 [5]: 272 ± 4.5 µM

CC(=O)OC[C@H]1O[C@@H](Sc2ccc(NC(=O)[C@H]3O[C@@H](n4ccc(=O)[nH]c4=O)[C@H](O[Si](C)(C)C(C)(C)C)[C@@H]3O[Si](C)(C)C(C)(C)C)cc2)[C@H](OC(C)=O)[C@@H](OC(C)=O)[C@@H]1OC(C)=O [Compound 12]
SI (CC50/IC50) [1]: 20.0
IC50 [1]: 13.5 ± 0.7 µM
CC50 [3]: 56 ± 4.3 µM
IC50 [7]: 4.24 µM
IC50 [4]: 4 ± 0.1 µM
amount of viral RNA (NS5B RT-PCR) [8]: significant dose-dependent inhibition
cytotoxicity in words [6]: relatively toxic
effect on virus entry (Model 1) [9]: none of the tested compounds targeted virus entry; also recorded: neither compound affected viral entry
antiviral activity in post-viral entry model (Model 3) [9]: strong antiviral activity
antiviral activity in full life cycle (Model 2) [9]: strong antiviral activity
CC50 [5]: 270 ± 2.9 µM
CC50 [10]: 130 µM

CC(=O)OC[C@H]1O[C@@H](Sc2ccc(NC(=O)[C@H]3O[C@@H](n4ccc(=O)[nH]c4=O)[C@H](O[Si](C)(C)C(C)(C)C)[C@@H]3O[Si](C)(C)C(C)(C)C)cc2)[C@H](OC(C)=O)[C@@H](OC(C)=O)[C@H]1OC(C)=O [Compound 13]
SI (CC50/IC50) [1]: 1.9
IC50 [1]: 7.4 ± 0.2 µM
SI (CC50/IC50) [2]: 2.0
CC50 [3]: 49 ± 3.5 µM
IC50 [4]: 25 ± 0.9 µM
cytotoxicity in words [6]: relatively toxic
CC50 [5]: 14 ± 0.9 µM

O=C(Nc1ccc(S[C@@H]2O[C@H](CO)[C@@H](O)[C@H](O)[C@H]2O)cc1)[C@H]1O[C@@H](n2ccc(=O)[nH]c2=O)[C@H](O)[C@@H]1O [Compound 14]
SI (CC50/IC50) [1]: >1.1
IC50 [1]: 444 ± 12.4 µM
SI (CC50/IC50) [2]: 1.1
CC50 [3]: 256 µM
IC50 [4]: 241 ± 9.2 µM
ability to inhibit β-1,4GalT activity [11]: demonstrated the ability of β-1,4GalT inhibition; also recorded: able to inhibit
IC50 ([11]; inhibitor 0.1–0.8 mM, UDP-Gal donor, esculine acceptor): 330 µM
CC50 ([6]; swine): 265 ± 8.6 µM
CC50 [5]: > 475 µM

O=C(Nc1ccc(S[C@@H]2O[C@H](CO)[C@H](O)[C@H](O)[C@H]2O)cc1)[C@H]1O[C@@H](n2ccc(=O)[nH]c2=O)[C@H](O)[C@@H]1O [Compound 15]
SI (CC50/IC50) [1]: 1.0
IC50 [1]: 454 ± 9.8 µM
SI (CC50/IC50) [2]: 1.1
CC50 [3]: 278 ± 4.3 µM
IC50 [4]: 257 ± 6.9 µM
ability to inhibit β-1,4GalT activity [11]: demonstrated the ability of β-1,4GalT inhibition
reduction of enzyme activity ([11]; maximum test concentration of 0.8 mM): 10%
CC50 [5]: 460 ± 9.3 µM

CC(=O)OC[C@H]1O[C@@H](Sc2ccc(NC(=O)[C@H]3O[C@@H](n4ccc(=O)[nH]c4=O)[C@H](O[Si](C)(C)C(C)(C)C)[C@@H]3O[Si](C)(C)C(C)(C)C)cn2)[C@H](OC(C)=O)[C@@H](OC(C)=O)[C@H]1OC(C)=O [II]
CC50 [12]: 173 ± 3.2 µM
IC50 [13]: 6 ± 0.4 µM
SI (CC50/IC50) [13]: 25.2
reduction of viral genome replication [14]: up to 90%
CC50 [15]: 151 ± 3.1 µM
IC50 [16]: 7 ± 0.4 µM
SI (CC50/IC50) [16]: 24.7

CC(=O)OC[C@H]1O[C@@H](Sc2ccc(NC(=O)[C@H]3O[C@@H](n4ccc(=O)[nH]c4=O)[C@H](O[Si](C)(C)C(C)(C)C)[C@@H]3O[Si](C)(C)C(C)(C)C)cn2)[C@H](OC(C)=O)[C@@H](OC(C)=O)[C@@H]1OC(C)=O [I]
CC50 [12]: 135 ± 2.4 µM
IC50 [13]: 3 ± 0.1 µM
SI (CC50/IC50) [13]: 28.7
reduction of viral genome replication [14]: up to 90%
CC50 [15]: 86 ± 2.4 µM
IC50 [16]: 7 ± 0.7 µM
SI (CC50/IC50) [16]: 19.3

CC(C)OC(=O)[C@H](C)N[P@](=O)(OC[C@H]1O[C@@H](n2ccc(=O)[nH]c2=O)[C@](C)(F)[C@@H]1O)Oc1ccccc1 [SOFOSBUVIR, sofosbuvir, reference compound]
SI (CC50/IC50) [1]: 119.2
IC50 [1]: 0.26 ± 0.02 µM
IC50 [7]: 0.028 µM
CC50 [17]: 23.5 µM
effect on virus entry (Model 1) [9]: no effect on virus entry
antiviral activity in post-viral entry model (Model 3) [9]: exerts its antiviral activity effect
antiviral activity in full life cycle (Model 2) [9]: exerts its antiviral activity effect
CC50 [18]: 31 ± 1.2 µM
